Experimental data reported in patent publication US9486534B2, “Niacin conjugated fatty acid mixtures and their uses” (Catabasis Pharmaceuticals, Inc., priority 2009, dated 2016).

Key:
[1] = test system: SCD (steroyl CoA desaturase); test: Effect on SREBP-1c target genes in HepG2 cells, real time PCR: SCD; type: cell-based; details: HepG2 cells stimulated with oleate, 50 μM, 6 hours, normalized to 18S; FIG. 2
Experimental: (§1) HepG2 cells (ATCC) were seeded at 20,000 cells per well in 96 well plates. After adhering overnight, growth media (1.0% FBS in DMEM) was removed and cells were serum starved for 24 hours in DMEM containing 1% fatty acid free bovine serum albumin (BSA, Sigma). […] Cells were incubated for 6 hours and then washed with PBS. RNA was reverse-transcribed using the cells to cDNA reagents according to standard protocols (outlined in Applied Biosystem StepOne Real-time PCR protocols). Real time PCR of transcripts was performed with Taqman assays for the three specific genes FASN (fatty acid synthase), SCD (steroyl CoA desaturase) and ApoA1 (apolipoprotein A1). In all three cases, 18S-VIC® was used as a normalization control.

[2] = test system: FASN (fatty acid synthase); test: Effect on SREBP-1c target genes in HepG2 cells, real time PCR: FASN; type: cell-based; details: HepG2 cells stimulated with oleate, 50 μM, 6 hours, normalized to 18S; FIG. 2
Experimental: as §1

[3] = test system: ApoA1 (apolipoprotein A1); test: Effect on SREBP-1c target genes in HepG2 cells, real time PCR: ApoA1; type: cell-based; details: HepG2 cells stimulated with oleate, 50 μM, 6 hours, normalized to 18S; FIG. 2
Experimental: as §1

[4] = test system: ApoB secretion in HepG2 cells; details: 3 concentrations (50, 100 and 200 μM), compared to niacin at 5 mM, FIG. 1
Experimental: HepG2 cells (ATCC) are seeded at 10,000 cells per well in 96 well plates. After adhering overnight, growth media (10% FBS in DMEM) is removed and cells are serum starved for 24 hours in DMEM containing 0.1% fatty acid free bovine serum albumin (BSA, Sigma). Cells are then treated with a compound. Niacin at 5 mM is used as a positive control. All treatments are performed in triplicate. Simultaneous with compound treatment, ApoB secretion is stimulated with addition of 0.1 oleate complexed to fatty acid free BSA in a 5:1 molar ratio. Incubation with a compound and oleate is conducted for 24 hours. Media supernatants are removed and ApoB concentrations are measured using ELISA kits (Mabtech AB). Percent inhibition of ApoB secretion is determined by normalizing data to vehicle treated wells. For a given compound, an IC50 (concentration at which 50% of ApoB secretion is inhibited) can also be determined by using a 4 parameter-fit inhibition curve model (Graph Pad Prism®). In each experiment, cell viability is determined using the ATPlite 1-Step kit (Perkin Elmer), such that compound effects due to cytotoxicity can be monitored.
The level of ApoB secretion was compared to that of niacin, evaluated at 5 mM concentration.

Which SCD gene expression [1] does the source give for `CC/C=C\C/C=C\C/C=C\C/C=C\C/C=C\CCCC(=O)NCCNC(=O)c1cccnc1` [I-8, N-(2-(5Z,8Z,11Z,14Z,17Z)-eicosa-5,8,11,14,17-pentaenamidoethyl)nicotinamide] here?
Its SCD gene expression is “statistically significant inhibition”.

What about the FASN gene expression [2] of the same molecule?
Its FASN gene expression is “statistically significant inhibition”.

And the ApoA1 gene expression [3]?
The ApoA1 gene expression was “increase”.

How did the SCD gene expression [1] turn out when `CC/C=C\C/C=C\C/C=C\C/C=C\C/C=C\C/C=C\CCC(=O)NCCNC(=O)c1cccnc1` [I-7, N-(2-(4Z,7Z,10Z,13Z,16Z,19Z)-docosa-4,7,10,13,16,19-hexaenamidoethyl)nicotinamide] was run?
Its SCD gene expression is “statistically significant inhibition”.

And the “inhibition of ApoB secretion” value [4]?
The value was “significant inhibition”.

What about the FASN gene expression [2] of the same molecule?
The FASN gene expression was “statistically significant inhibition”.

What about the ApoA1 gene expression [3] of the same molecule?
Its ApoA1 gene expression is “increase”.
